“And” between values parts separate entries of the source, which are not always exact repeats. Identical values can stand only once. ± gives the expanded uncertainty stated by the source.
What was measured:
[1] = xn = mol fraction of the nth substance listed; settings: 101 kPa, Liquid; for mass density: Vibrating tube method
[2] = 101 kPa, Liquid; for mass density: Vibrating tube method

CC(=O)N(C)C [N,N-dimethylethanamide] + CCCCC(C)O
mass density ([1]; 298.15 K, x1 = 1): 936.5 ± 0.2 kg/m3
viscosity ([1]; 298.15 K, x1 = 1): 0.94 ± 0.037 mPa·s
mass density ([1]; 303.15 K, x1 = 1): 932 ± 0.2 kg/m3
viscosity ([1]; 303.15 K, x1 = 1): 0.87 ± 0.035 mPa·s
mass density ([1]; 308.15 K, x1 = 1): 927.8 ± 0.2 kg/m3
viscosity ([1]; 308.15 K, x1 = 1): 0.8 ± 0.032 mPa·s
mass density ([1]; 313.15 K, x1 = 1): 923.5 ± 0.2 kg/m3
viscosity ([1]; 313.15 K, x1 = 1): 0.75 ± 0.031 mPa·s

CCC(C)O (stereo not drawn) [butan-2-ol] + CC(=O)N(C)C
mass density ([1]; 298.15 K, x2 = 0): 803 ± 0.2 kg/m3
viscosity ([1]; 298.15 K, x2 = 0): 3.1 ± 0.09 mPa·s
mass density ([1]; 303.15 K, x2 = 0): 798.9 ± 0.2 kg/m3
viscosity ([1]; 303.15 K, x2 = 0): 2.53 ± 0.07 mPa·s
mass density ([1]; 308.15 K, x2 = 0): 795 ± 0.2 kg/m3
viscosity ([1]; 308.15 K, x2 = 0): 2.13 ± 0.06 mPa·s
mass density ([1]; 313.15 K, x2 = 0): 790.2 ± 0.2 kg/m3
viscosity ([1]; 313.15 K, x2 = 0): 1.8 ± 0.05 mPa·s

CC(C)O [propan-2-ol]
viscosity ([2]; 298.15 K): 2.05 ± 0.06 mPa·s
mass density ([2]; 298.15 K): 781.1 ± 0.2 kg/m3
viscosity ([2]; 303.15 K): 1.79 ± 0.05 mPa·s
mass density ([2]; 303.15 K): 776.8 ± 0.2 kg/m3
viscosity ([2]; 308.15 K): 1.56 ± 0.05 mPa·s
mass density ([2]; 308.15 K): 772.4 ± 0.2 kg/m3
viscosity ([2]; 313.15 K): 1.35 ± 0.04 mPa·s
mass density ([2]; 313.15 K): 767.8 ± 0.2 kg/m3

CCCC(C)O (stereo not drawn) [pentan-2-ol]
viscosity ([2]; 298.15 K): 3.5 ± 0.1 mPa·s
mass density ([2]; 298.15 K): 805.4 ± 0.2 kg/m3
viscosity ([2]; 303.15 K): 2.83 ± 0.082 mPa·s
mass density ([2]; 303.15 K): 800.9 ± 0.2 kg/m3
viscosity ([2]; 308.15 K): 2.35 ± 0.069 mPa·s
mass density ([2]; 308.15 K): 796.9 ± 0.2 kg/m3
viscosity ([2]; 313.15 K): 1.98 ± 0.058 mPa·s
mass density ([2]; 313.15 K): 792.6 ± 0.2 kg/m3

CC(=O)N(C)C [N,N-dimethylethanamide]
viscosity ([2]; 298.15 K): 0.94 ± 0.03 mPa·s
mass density ([2]; 298.15 K): 936.5 ± 0.2 kg/m3
viscosity ([2]; 303.15 K): 0.87 ± 0.03 mPa·s
mass density ([2]; 303.15 K): 932 ± 0.2 kg/m3
viscosity ([2]; 308.15 K): 0.82 ± 0.03 mPa·s and 0.8 ± 0.03 mPa·s
mass density ([2]; 308.15 K): 927.8 ± 0.2 kg/m3
viscosity ([2]; 313.15 K): 0.75 ± 0.02 mPa·s
mass density ([2]; 313.15 K): 923.5 ± 0.2 kg/m3

CC(=O)N(C)C [N,N-dimethylethanamide] + CCCC(C)O
mass density ([1]; 298.15 K, x1 = 1): 936.5 ± 0.2 kg/m3
viscosity ([1]; 298.15 K, x1 = 1): 0.94 ± 0.029 mPa·s
mass density ([1]; 303.15 K, x1 = 1): 932 ± 0.2 kg/m3
viscosity ([1]; 303.15 K, x1 = 1): 0.87 ± 0.027 mPa·s
mass density ([1]; 308.15 K, x1 = 1): 927.8 ± 0.2 kg/m3
viscosity ([1]; 308.15 K, x1 = 1): 0.8 ± 0.025 mPa·s
mass density ([1]; 313.15 K, x1 = 1): 923.5 ± 0.2 kg/m3
viscosity ([1]; 313.15 K, x1 = 1): 0.75 ± 0.023 mPa·s

CC(C)O [propan-2-ol] + CC(=O)N(C)C
mass density ([1]; 298.15 K, x2 = 0): 781.1 ± 0.2 kg/m3
viscosity ([1]; 298.15 K, x2 = 0): 2.05 ± 0.06 mPa·s
mass density ([1]; 303.15 K, x2 = 0): 776.8 ± 0.2 kg/m3
viscosity ([1]; 303.15 K, x2 = 0): 1.79 ± 0.05 mPa·s
mass density ([1]; 308.15 K, x2 = 0): 772.4 ± 0.2 kg/m3
viscosity ([1]; 308.15 K, x2 = 0): 1.56 ± 0.05 mPa·s
mass density ([1]; 313.15 K, x2 = 0): 767.8 ± 0.2 kg/m3
viscosity ([1]; 313.15 K, x2 = 0): 1.35 ± 0.04 mPa·s

CCCCCC(C)O (stereo not drawn) [2-heptanol]
viscosity ([2]; 298.15 K): 5.3 ± 0.15 mPa·s
mass density ([2]; 298.15 K): 813.2 ± 0.2 kg/m3
viscosity ([2]; 303.15 K): 4.48 ± 0.13 mPa·s
mass density ([2]; 303.15 K): 809.5 ± 0.2 kg/m3
viscosity ([2]; 308.15 K): 3.68 ± 0.11 mPa·s
mass density ([2]; 308.15 K): 805.7 ± 0.2 kg/m3
viscosity ([2]; 313.15 K): 2.96 ± 0.086 mPa·s
mass density ([2]; 313.15 K): 801.5 ± 0.2 kg/m3

CCC(C)O (stereo not drawn) [butan-2-ol]
viscosity ([2]; 298.15 K): 3.1 ± 0.09 mPa·s
mass density ([2]; 298.15 K): 803 ± 0.2 kg/m3
viscosity ([2]; 303.15 K): 2.53 ± 0.07 mPa·s
mass density ([2]; 303.15 K): 798.9 ± 0.2 kg/m3
viscosity ([2]; 308.15 K): 2.13 ± 0.06 mPa·s
mass density ([2]; 308.15 K): 795 ± 0.2 kg/m3
viscosity ([2]; 313.15 K): 1.8 ± 0.05 mPa·s
mass density ([2]; 313.15 K): 790.2 ± 0.2 kg/m3

CC(=O)N(C)C [N,N-dimethylethanamide] + CCCCCC(C)O
mass density ([1]; 298.15 K, x1 = 1): 936.5 ± 0.2 kg/m3
viscosity ([1]; 298.15 K, x1 = 1): 0.94 ± 0.029 mPa·s
mass density ([1]; 303.15 K, x1 = 1): 932 ± 0.2 kg/m3
viscosity ([1]; 303.15 K, x1 = 1): 0.87 ± 0.027 mPa·s
mass density ([1]; 308.15 K, x1 = 1): 927.8 ± 0.2 kg/m3
viscosity ([1]; 308.15 K, x1 = 1): 0.8 ± 0.025 mPa·s
mass density ([1]; 313.15 K, x1 = 1): 923.5 ± 0.2 kg/m3
viscosity ([1]; 313.15 K, x1 = 1): 0.75 ± 0.023 mPa·s

CCCCC(C)O (stereo not drawn) [2-hexanol]
viscosity ([2]; 298.15 K): 4.1 ± 0.15 mPa·s
mass density ([2]; 298.15 K): 810.1 ± 0.2 kg/m3
viscosity ([2]; 303.15 K): 3.41 ± 0.12 mPa·s
mass density ([2]; 303.15 K): 806.1 ± 0.2 kg/m3
viscosity ([2]; 308.15 K): 2.82 ± 0.1 mPa·s
mass density ([2]; 308.15 K): 802.1 ± 0.2 kg/m3
viscosity ([2]; 313.15 K): 2.22 ± 0.083 mPa·s
mass density ([2]; 313.15 K): 798 ± 0.2 kg/m3

— the NIST ThermoML archive (doi:10.1021/je400917j)
